Assay [1] deals with T1, hSCN3A (Homo sapiens, UniProt Q9NY46).
T1 construct: expressed in transfected cells
The assay is described as follows: SCN3A inhibitory activity in HEK cells stably expressing hSCN3A (whole-cell patch clamp / radiotracer efflux HTS). Format: cell-based. The note with it: HEK cells stably transfected with hSCN3A; read-out: SCN3A Inhibitory Activity. For orientation: In patch-clamp work, channel activity is measured electrically.

Assay [2] addresses Nav1.1 (Homo sapiens, UniProt P35498). The note with it: read-out: TTX IC-50; cited from earlier work.
Assay [3] has as its target Nav1.3 (Homo sapiens, UniProt Q9NY46). The following applies: read-out: TTX IC-50; cited from earlier work.
The target of assay [4] is Nav1.2 (Homo sapiens, UniProt Q99250). The note with it: read-out: TTX IC-50; cited from earlier work.
Nav1.2, sequence (Q99250 whole entry, looked up): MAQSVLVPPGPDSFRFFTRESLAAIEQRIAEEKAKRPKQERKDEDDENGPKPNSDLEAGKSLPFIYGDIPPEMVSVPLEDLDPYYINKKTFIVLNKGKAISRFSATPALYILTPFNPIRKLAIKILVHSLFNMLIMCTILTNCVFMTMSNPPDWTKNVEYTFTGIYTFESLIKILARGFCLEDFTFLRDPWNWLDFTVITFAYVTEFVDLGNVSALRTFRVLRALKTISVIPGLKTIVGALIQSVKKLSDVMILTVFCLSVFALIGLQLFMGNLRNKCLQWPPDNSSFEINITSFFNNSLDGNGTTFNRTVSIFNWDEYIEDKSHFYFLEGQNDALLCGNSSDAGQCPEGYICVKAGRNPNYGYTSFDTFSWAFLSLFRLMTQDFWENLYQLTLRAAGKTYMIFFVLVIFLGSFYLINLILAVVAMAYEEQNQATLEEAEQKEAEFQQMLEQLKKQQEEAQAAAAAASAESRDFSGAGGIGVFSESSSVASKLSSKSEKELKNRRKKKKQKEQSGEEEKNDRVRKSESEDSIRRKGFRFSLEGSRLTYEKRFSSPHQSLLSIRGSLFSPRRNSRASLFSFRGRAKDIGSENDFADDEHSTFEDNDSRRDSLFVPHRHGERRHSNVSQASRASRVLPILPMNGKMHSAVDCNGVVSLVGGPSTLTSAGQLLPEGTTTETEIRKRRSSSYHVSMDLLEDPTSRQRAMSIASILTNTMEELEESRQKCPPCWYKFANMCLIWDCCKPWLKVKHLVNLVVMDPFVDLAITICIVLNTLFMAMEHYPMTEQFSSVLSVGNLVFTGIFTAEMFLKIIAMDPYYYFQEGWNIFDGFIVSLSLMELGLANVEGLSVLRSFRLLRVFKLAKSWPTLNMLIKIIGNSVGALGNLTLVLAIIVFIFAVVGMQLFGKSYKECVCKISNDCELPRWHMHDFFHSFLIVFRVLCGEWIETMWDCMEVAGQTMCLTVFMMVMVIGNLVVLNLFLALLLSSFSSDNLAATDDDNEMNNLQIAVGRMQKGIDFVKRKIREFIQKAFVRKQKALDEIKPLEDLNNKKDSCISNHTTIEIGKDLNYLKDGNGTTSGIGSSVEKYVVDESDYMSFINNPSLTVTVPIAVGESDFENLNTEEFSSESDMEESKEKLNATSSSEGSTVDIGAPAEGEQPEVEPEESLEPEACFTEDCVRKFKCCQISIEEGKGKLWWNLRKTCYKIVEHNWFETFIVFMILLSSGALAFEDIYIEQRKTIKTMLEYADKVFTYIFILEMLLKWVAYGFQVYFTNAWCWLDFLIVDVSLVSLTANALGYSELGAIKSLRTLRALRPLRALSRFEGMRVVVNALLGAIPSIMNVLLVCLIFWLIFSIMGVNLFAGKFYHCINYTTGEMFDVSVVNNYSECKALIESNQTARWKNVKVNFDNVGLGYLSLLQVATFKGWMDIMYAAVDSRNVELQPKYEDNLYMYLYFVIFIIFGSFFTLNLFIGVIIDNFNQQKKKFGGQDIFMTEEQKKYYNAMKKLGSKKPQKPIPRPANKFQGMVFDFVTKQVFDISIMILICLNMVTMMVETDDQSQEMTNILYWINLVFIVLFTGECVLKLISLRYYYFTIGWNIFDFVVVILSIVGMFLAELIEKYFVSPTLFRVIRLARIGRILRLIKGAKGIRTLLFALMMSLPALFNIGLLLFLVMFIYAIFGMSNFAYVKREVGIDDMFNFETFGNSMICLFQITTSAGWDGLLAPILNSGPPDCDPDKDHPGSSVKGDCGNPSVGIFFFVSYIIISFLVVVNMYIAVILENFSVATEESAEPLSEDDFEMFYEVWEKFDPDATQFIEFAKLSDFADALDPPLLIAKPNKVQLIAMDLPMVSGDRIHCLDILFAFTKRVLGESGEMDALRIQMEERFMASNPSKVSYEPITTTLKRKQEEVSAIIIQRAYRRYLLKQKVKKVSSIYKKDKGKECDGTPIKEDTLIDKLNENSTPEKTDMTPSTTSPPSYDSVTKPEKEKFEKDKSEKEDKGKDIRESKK
The target in assay [5] is Nav1.6 (Homo sapiens, UniProt Q9UQD0). The following applies: read-out: TTX IC-50; cited from earlier work.
The target of assay [6] is Nav1.9 (Homo sapiens, UniProt Q9UI33). The following applies: read-out: TTX IC-50; cited from earlier work.
In assay [7] the target is Nav1.8 (Homo sapiens, UniProt Q9Y5Y9). The note with it: read-out: TTX IC-50; cited from earlier work.
For assay [8] the following is noted: 'as little as only'; cited from earlier work.

T1 sequence (Q9NY46 whole entry): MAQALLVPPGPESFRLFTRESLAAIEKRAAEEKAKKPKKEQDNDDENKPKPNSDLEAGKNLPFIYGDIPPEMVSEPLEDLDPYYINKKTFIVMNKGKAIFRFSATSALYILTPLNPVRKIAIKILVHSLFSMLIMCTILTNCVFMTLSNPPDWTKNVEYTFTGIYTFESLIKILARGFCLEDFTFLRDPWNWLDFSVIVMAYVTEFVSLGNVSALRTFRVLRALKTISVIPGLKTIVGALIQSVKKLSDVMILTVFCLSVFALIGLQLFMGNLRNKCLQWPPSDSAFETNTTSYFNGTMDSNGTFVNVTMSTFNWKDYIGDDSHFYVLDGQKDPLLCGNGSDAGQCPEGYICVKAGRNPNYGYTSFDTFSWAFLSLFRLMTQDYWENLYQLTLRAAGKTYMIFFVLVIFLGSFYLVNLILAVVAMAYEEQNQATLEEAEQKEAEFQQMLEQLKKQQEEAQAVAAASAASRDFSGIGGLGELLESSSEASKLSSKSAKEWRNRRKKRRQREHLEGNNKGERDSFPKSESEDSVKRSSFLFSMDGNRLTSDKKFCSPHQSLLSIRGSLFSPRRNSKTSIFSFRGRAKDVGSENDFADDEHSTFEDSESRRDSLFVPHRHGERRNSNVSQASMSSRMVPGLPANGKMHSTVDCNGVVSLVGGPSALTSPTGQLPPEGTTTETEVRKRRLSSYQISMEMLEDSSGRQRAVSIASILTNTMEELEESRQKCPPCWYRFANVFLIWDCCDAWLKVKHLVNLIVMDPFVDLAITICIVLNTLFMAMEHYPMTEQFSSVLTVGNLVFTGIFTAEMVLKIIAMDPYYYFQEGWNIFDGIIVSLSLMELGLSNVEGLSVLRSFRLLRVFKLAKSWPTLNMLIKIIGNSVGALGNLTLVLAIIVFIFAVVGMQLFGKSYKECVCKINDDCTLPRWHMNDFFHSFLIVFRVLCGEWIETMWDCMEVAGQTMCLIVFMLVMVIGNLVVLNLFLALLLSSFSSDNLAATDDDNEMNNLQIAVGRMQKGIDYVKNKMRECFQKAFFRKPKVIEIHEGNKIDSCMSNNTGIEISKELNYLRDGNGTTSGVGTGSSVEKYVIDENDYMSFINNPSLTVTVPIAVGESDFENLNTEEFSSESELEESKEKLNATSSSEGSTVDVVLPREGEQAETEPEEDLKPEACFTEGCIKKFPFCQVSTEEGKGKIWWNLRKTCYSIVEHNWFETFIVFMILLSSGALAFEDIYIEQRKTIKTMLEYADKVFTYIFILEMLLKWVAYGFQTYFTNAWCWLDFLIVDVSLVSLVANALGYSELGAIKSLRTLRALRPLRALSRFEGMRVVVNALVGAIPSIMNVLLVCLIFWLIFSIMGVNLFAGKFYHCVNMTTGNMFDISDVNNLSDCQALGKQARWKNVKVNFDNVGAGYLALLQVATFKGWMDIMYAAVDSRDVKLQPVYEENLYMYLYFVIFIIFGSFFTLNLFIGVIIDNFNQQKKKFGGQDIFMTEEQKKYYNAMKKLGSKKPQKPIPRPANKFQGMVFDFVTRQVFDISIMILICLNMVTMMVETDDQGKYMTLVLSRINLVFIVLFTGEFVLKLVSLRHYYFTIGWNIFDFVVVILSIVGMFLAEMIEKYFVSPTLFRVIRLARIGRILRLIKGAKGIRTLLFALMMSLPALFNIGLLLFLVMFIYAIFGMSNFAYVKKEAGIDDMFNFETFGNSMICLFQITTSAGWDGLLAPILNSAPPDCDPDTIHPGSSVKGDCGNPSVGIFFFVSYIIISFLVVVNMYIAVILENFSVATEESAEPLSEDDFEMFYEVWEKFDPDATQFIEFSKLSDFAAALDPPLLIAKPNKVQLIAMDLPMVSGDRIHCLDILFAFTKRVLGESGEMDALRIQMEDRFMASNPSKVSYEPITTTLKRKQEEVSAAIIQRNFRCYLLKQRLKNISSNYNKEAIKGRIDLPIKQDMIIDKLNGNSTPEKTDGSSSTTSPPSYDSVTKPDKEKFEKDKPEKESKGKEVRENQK
Nav1.3, sequence (Q9NY46 whole entry, looked up): as the sequence (Q9NY46 whole entry) above

Turning to `COc1ccc(CNS(=O)(=O)c2ccc(S(=O)(=O)Nc3nccs3)cc2)cc1Cl` [Compound 37, Benzene-1,4-disulfonic acid 1-(3-chloro-4-methoxy-benzylamide) 4-thiazol-2-ylamide], in assay [1], the IC50 lay in the range of 100 to 500 nM.
With `CC(C)(C)c1ccc(OC2(CNS(=O)(=O)c3ccc(S(=O)(=O)Nc4nccs4)cc3)CCCC2)cc1` [Compound 38, Benzene-1,4-disulfonic acid 1-{[1-(4-tert-butyl-phenoxy)-cyclopentylmethyl]-amide} 4-thiazol-2-ylamide], the IC50 in assay [1] is 100 to 500 nM.
In the case of `CC(C)(CNS(=O)(=O)c1ccc(S(=O)(=O)Nc2nccs2)cc1)c1ccc(Cl)cc1` [Compound 39, Benzene-1,4-disulfonic acid 1-{[2-(4-chloro-phenyl)-2-methyl-propyl]-amide} 4-thiazol-2-ylamide], the IC50 in assay [1] lay within 100 to 500 nM.
Take `O=S(=O)(NCc1cc(F)cc(C(F)(F)F)c1)c1ccc(S(=O)(=O)Nc2nccs2)cc1` [Compound 40, Benzene-1,4-disulfonic acid 1-(3-fluoro-5-trifluoromethyl-benzylamide) 4-thiazol-2-ylamide]: in assay [1], the IC50 lay in the range of 100 to 500 nM.
Same read-out and setting: the result for `O=S(=O)(NCCc1ccc(Cl)s1)c1ccc(S(=O)(=O)Nc2nccs2)cc1` [Compound 41, Benzene-1,4-disulfonic acid 1-{[2-(5-chloro-thiophen-2-yl)-ethyl]-amide} 4-thiazol-2-ylamide] reads 100 to 500 nM; that for `CC(C)(C)CCNS(=O)(=O)c1ccc(S(=O)(=O)Nc2nccs2)c(F)c1` [Compound 42, 2-Fluoro-benzene-1,4-disulfonic acid 4-[(3,3-dimethyl-butyl)-amide] 1-thiazol-2-ylamide], 100 to 500 nM.
In the case of `O=S(=O)(NCCOc1ccccc1Cl)Nc1ccc(S(=O)(=O)Nc2nccs2)cc1` [Compound 43, N-[2-(2-chloro-phenoxyl)-ethyl]-N′-[4-(N-thiazol-2-yl-sulfonamyl)-phenyl]-sulfamide], the IC50 in assay [1] is 500 to 1000 nM.
`O=S(=O)(NCCC1CCCCC1)c1ccc(S(=O)(=O)Nc2nccs2)cc1` [Compound 44, Benzene-1,4-disulfonic acid 1-[(2-cyclohexyl-ethyl)-amide] 4-thiazol-2-ylamide]: the IC50 in assay [1] is 500 to 1000 nM.
For `O=S(=O)(NCC(c1ccccc1)c1ccccc1)Nc1ccc(S(=O)(=O)Nc2nccs2)cn1` [Compound 45], in assay [1], the IC50 is above 1000 nM.
For the compound `O=S(=O)(NCCC1CCOCC1)Nc1ccc(S(=O)(=O)Nc2nccs2)cc1` [Compound 46, N-[2-(4-tetrahydro-pyranyl]-ethyl]-N′-[4-(N-thiazol-2-yl-sulfonamyl)-phenyl]-sulfamide], in assay [1], the IC50 was above 1000 nM.
As to `CN(CCc1ccccc1)S(=O)(=O)c1ccc(S(=O)(=O)Nc2nccs2)cc1` [Compound 47, Benzene-1,4-disulfonic acid 1-(methyl-phenethyl-amide) 4-thiazol-2-ylamide], in assay [1], the IC50 is above 1000 nM.
On to `NC1=N[C@H](O)[C@H]2[C@H]3O[C@]4(O)O[C@@H]([C@@H](O)[C@@]2(N1)[C@@H]4O)[C@]3(O)CO` [TTX, tetrodotoxin], for which the IC50 in assay [2] is 10 nM; in assay [3] it was 15 nM; in assay [4] it was 10 nM; in assay [5] it was 6 nM; in assay [6], 1000 nM; in assay [7] it was 50000 nM.
Turning to `NCC1(CC(=O)O)CCCCC1` [gabapentin], in assay [8], the “patients respond to gabapentin treatment for neuropathic pain” value is listed as 30%.

The record behind these values is patent US8338608B2, “Inhibitors of ion channels” (Icagen Inc., priority 2005, dated 2012).
